The text below walks through data of patent US20080287299A1, “Use of Imidazole and/or Triazole Derivatives for Combating Plant Pests; as Well as Method for Controlling Diseases/Insects/Mites/Nematodes and Weeds, Particularly Foliar and/or Soil Diseases” (priority 2005, published 2008).

The experiment has as its system Phakopsora pachyrhizi. The experiment is described as follows: Greenhouse soybean rust test, plants at V5 stage, evaluated every 7 days. It counts as in vivo. As to conditions: for SEVERITY OF RUST (% IFA) 7 DAT / SEVERITY OF RUST (% IFA) 14 DAT / SEVERITY OF RUST (% IFA) 21 DAT / SEVERITY OF RUST (% IFA) 28 DAT: soybean; for effective in controlling soybean rust: from 50 grams of active ingredient per hectare. The text has this: Recent tests carried out in greenhouses the laboratory of FMC Quimica do Brasil Ltda. in Uberaba, MG, Brazil, show the highly fungicidal effect of said specific imidazole and/or triazole derivatives in combating diseases of plants, particularly against the attack by the fungus Phakopsora pachyrhizi on soybeans, as described hereinafter.
Experimental Outline Experimental Outline: entirely made with five repetitions, two plants per repetition, totaling 10 plants.
a) Preventive Mode: 30 days after plantation of the soybeans in plastic 2-liter pots and with corresponding volumes of soil, the soybean plants were at the V5 stage with six expanded folioles. At this moment, the compounds were sprayed and then, 48 hours afterwards, inoculation of the rust was effected. To effect the inoculation, one prepared a suspension of Phakopsora uredospores at the concentration of 2×10^4 spores/milliliters.
b) Healing mode: 30 days after plantation of the soybeans in 2-liter plastic pots and with a corresponding volume of soil, the soybean plants were at the V5 stage with six expanded folioles. At this moment, one effected the inoculation of the rust and then, 48 hours afterwards, the compounds were sprayed. To effect the inoculation, one prepared a suspension of Phakopsora uredospores at the concentration of 2×10^4 spores/milliliters.
Equipment: a manual sprayer commonly used in agriculture with 2-liter capacity.
Dosages: 50 to 300 grams per hectare of the active compound Itraconazole per liter diluted in water.
Evaluations of the Effectiveness of the Product: The evaluations were made every 7 days after application of the product, in a total of 4 evaluations. As an evaluation parameter one utilized the severity of the disease (percentage of foliar area attacked by rust) according to FIG. 1).
Dosages: 50 to 300 grams per hectare of the active compound Voriconazole per liter diluted in water.

As for `CC[C@@H]([C@H](C)O)n1ncn(-c2ccc(N3CCN(c4ccc(OC[C@@H]5CO[C@](Cn6cncn6)(c6ccc(F)cc6F)C5)cc4)CC3)cc2)c1=O` [Posaconazole, 1-((1S,2S)-1-ethyl-2-hydroxypropyl)-4-{4-[4-(4-{[(5S,3R)-5-(2,4-difluorophenyl)-5-(1,2,4-triazolylmethyll)oxolan-3-yl]methoxy}phenyl)pipera-zinyl]phenyl}-1,2,4-triazolin-5-one], the “effective in controlling soybean rust” value was “effective in controlling soybean rust”. For the setting “Table 6: 50 g ac/ha”, the “SEVERITY OF RUST (% IFA) 7 DAT” value was 11 % IFA, the “SEVERITY OF RUST (% IFA) 14 DAT” value stood at 13 % IFA, the “SEVERITY OF RUST (% IFA) 21 DAT” value turned out to be 15 % IFA and the “SEVERITY OF RUST (% IFA) 28 DAT” value amounted to 14 % IFA. For the same compound, under “Table 6: 100 g ac/ha”, the “SEVERITY OF RUST (% IFA) 7 DAT” value is given as 5 % IFA, the “SEVERITY OF RUST (% IFA) 14 DAT” value was determined as 8 % IFA, the “SEVERITY OF RUST (% IFA) 21 DAT” value was found to be 12 % IFA and the “SEVERITY OF RUST (% IFA) 28 DAT” value came out at 13 % IFA. Where the note is “Table 6: 150 g ac/ha”, the “SEVERITY OF RUST (% IFA) 7 DAT” value came to 0 % IFA, the “SEVERITY OF RUST (% IFA) 14 DAT” value came out at 6 % IFA, the “SEVERITY OF RUST (% IFA) 21 DAT” value is on record as 9 % IFA and the “SEVERITY OF RUST (% IFA) 28 DAT” value came to 12 % IFA. In addition, under “Table 6: 200 g ac/ha”, the “SEVERITY OF RUST (% IFA) 7 DAT” value came to 3 % IFA, the “SEVERITY OF RUST (% IFA) 14 DAT” value is 0 % IFA, the “SEVERITY OF RUST (% IFA) 21 DAT” value is 6 % IFA and the “SEVERITY OF RUST (% IFA) 28 DAT” value is 9 % IFA. Further, under “Table 6: 300 g ac/ha”, the “SEVERITY OF RUST (% IFA) 7 DAT” value came to 0 % IFA, the “SEVERITY OF RUST (% IFA) 14 DAT” value was determined as 0 % IFA, the “SEVERITY OF RUST (% IFA) 21 DAT” value was found to be 3 % IFA and the “SEVERITY OF RUST (% IFA) 28 DAT” value is reported as 7 % IFA.
`C[C@@H](c1nc(-c2ccc(C#N)cc2)cs1)[C@](O)(Cn1cncn1)c1ccc(F)cc1F` [Ravuconazole, 4-[2-[(1R,2R)-2-(2,4-difluor-phenyl)-2-hydroxy-1-methyl-3-(1H-1,2,4-triazol-1-yl)propyl]4-thiazolyl]-benzonitriyl]: the “effective in controlling soybean rust” value was “effective”. Moreover, for the setting “Table 4: 50 g ca/ha”, the “SEVERITY OF RUST (% IFA) 7 DAT” value was 15 % IFA, the “SEVERITY OF RUST (% IFA) 14 DAT” value was 16 % IFA, the “SEVERITY OF RUST (% IFA) 21 DAT” value is listed as 16 % IFA and the “SEVERITY OF RUST (% IFA) 28 DAT” value is 18 % IFA. Moreover, where the note is “Table 4: 100 g ca/ha”, the “SEVERITY OF RUST (% IFA) 7 DAT” value was 12 % IFA, the “SEVERITY OF RUST (% IFA) 14 DAT” value is given as 12 % IFA, the “SEVERITY OF RUST (% IFA) 21 DAT” value came out at 14 % IFA and the “SEVERITY OF RUST (% IFA) 28 DAT” value is listed as 18 % IFA. Moreover, where the note is “Table 4: 150 g ca/ha”, the “SEVERITY OF RUST (% IFA) 7 DAT” value was found to be 9 % IFA, the “SEVERITY OF RUST (% IFA) 14 DAT” value came to 11 % IFA, the “SEVERITY OF RUST (% IFA) 21 DAT” value was 11 % IFA and the “SEVERITY OF RUST (% IFA) 28 DAT” value came to 16 % IFA. For the setting “Table 4: 200 g ca/ha”, the “SEVERITY OF RUST (% IFA) 7 DAT” value is listed as 3 % IFA, the “SEVERITY OF RUST (% IFA) 14 DAT” value is given as 7 % IFA, the “SEVERITY OF RUST (% IFA) 21 DAT” value stood at 11 % IFA and the “SEVERITY OF RUST (% IFA) 28 DAT” value was determined as 15 % IFA. Further, under “Table 4: 300 g ca/ha”, the “SEVERITY OF RUST (% IFA) 7 DAT” value came to 2 % IFA, the “SEVERITY OF RUST (% IFA) 14 DAT” value turned out to be 3 % IFA, the “SEVERITY OF RUST (% IFA) 21 DAT” value was found to be 9 % IFA and the “SEVERITY OF RUST (% IFA) 28 DAT” value was found to be 11 % IFA.
For `C[C@@H](c1ncncc1F)[C@](O)(Cn1cncn1)c1ccc(F)cc1F` (relative stereo) [Voriconazole, alpha-(2,4-difluorophenyll)-5-fluor-beta-methyl-alpha-(1H-1,2,4-triazol-1-yllmethyl)-(R—(R*,S*))-4-pirimidinetanole], the “effective in controlling soybean rust” value is on record as “effective in controlling soybean rust”. Where the note is “Table 5: 50 g ac/ha”, the “SEVERITY OF RUST (% IFA) 7 DAT” value is 8 % IFA, the “SEVERITY OF RUST (% IFA) 14 DAT” value is reported as 10 % IFA, the “SEVERITY OF RUST (% IFA) 21 DAT” value is recorded as 10 % IFA and the “SEVERITY OF RUST (% IFA) 28 DAT” value is 13 % IFA. For the setting “Table 5: 100 g ac/ha”, the “SEVERITY OF RUST (% IFA) 7 DAT” value came to 8 % IFA, the “SEVERITY OF RUST (% IFA) 14 DAT” value is 8 % IFA, the “SEVERITY OF RUST (% IFA) 21 DAT” value was determined as 11 % IFA and the “SEVERITY OF RUST (% IFA) 28 DAT” value came out at 18 % IFA. For the same compound, under “Table 5: 150 g ac/ha”, the “SEVERITY OF RUST (% IFA) 7 DAT” value is recorded as 8 % IFA, the “SEVERITY OF RUST (% IFA) 14 DAT” value stood at 8 % IFA, the “SEVERITY OF RUST (% IFA) 21 DAT” value stood at 10 % IFA and the “SEVERITY OF RUST (% IFA) 28 DAT” value is 18 % IFA. For the setting “Table 5: 200 g ac/ha”, the “SEVERITY OF RUST (% IFA) 7 DAT” value worked out at 4 % IFA, the “SEVERITY OF RUST (% IFA) 14 DAT” value amounted to 7 % IFA, the “SEVERITY OF RUST (% IFA) 21 DAT” value is 11 % IFA and the “SEVERITY OF RUST (% IFA) 28 DAT” value is reported as 11 % IFA. For the same compound, where the note is “Table 5: 300 g ac/ha”, the “SEVERITY OF RUST (% IFA) 7 DAT” value is recorded as 2 % IFA, the “SEVERITY OF RUST (% IFA) 14 DAT” value was found to be 0 % IFA, the “SEVERITY OF RUST (% IFA) 21 DAT” value came to 1 % IFA and the “SEVERITY OF RUST (% IFA) 28 DAT” value is listed as 5 % IFA.
